Data: US12428415B2, “Matriptase 2 inhibitors and uses thereof” (Disc Medicine, Inc., priority 2018, dated 2025)
Where two headings read alike, the source gives them in different places.

Target: T1, Human Recombinant Matriptase 2 (Homo sapiens, UniProt Q8IU80)
T1 construct: purchased Enzo Life Sciences (an in-house preparation was also used) ALX-201-752-1
T1 sequence (Q8IU80 1-811): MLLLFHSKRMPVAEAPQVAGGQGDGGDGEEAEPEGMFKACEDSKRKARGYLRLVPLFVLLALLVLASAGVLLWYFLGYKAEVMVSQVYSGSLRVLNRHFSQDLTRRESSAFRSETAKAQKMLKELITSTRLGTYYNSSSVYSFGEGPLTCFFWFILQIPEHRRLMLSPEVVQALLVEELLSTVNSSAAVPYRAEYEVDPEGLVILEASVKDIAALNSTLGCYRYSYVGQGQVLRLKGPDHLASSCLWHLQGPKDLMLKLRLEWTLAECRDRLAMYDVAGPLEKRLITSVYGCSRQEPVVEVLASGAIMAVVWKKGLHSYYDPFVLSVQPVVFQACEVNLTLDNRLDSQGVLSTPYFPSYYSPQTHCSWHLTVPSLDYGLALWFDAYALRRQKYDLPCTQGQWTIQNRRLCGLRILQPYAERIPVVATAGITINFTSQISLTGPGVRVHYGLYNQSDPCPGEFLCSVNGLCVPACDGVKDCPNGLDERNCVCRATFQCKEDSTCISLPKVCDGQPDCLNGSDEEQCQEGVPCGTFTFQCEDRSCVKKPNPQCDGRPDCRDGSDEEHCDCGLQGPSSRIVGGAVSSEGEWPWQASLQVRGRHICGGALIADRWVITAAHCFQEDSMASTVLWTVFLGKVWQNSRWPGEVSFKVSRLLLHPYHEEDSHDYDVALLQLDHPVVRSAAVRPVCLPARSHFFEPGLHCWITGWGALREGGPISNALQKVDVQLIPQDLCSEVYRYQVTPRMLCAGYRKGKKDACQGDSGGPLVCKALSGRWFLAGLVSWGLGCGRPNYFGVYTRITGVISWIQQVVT
Assay: Matriptase 2 fluorescence based inhibition assay, Method A (100 mM TRIS pH 9, 1 mg/mL BSA)
Type: biochemical
Conditions: Assay Used = A, read-out: Mar-2 % inhibition at 1 uM
Method in brief: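 Enzyme (7 nM commercial or 15 nM in-house) preincubated 30 min with compound in 100 mM TRIS pH 9, 1 mg/mL BSA, 1% DMSO at 25° C. Boc-Gln-Ala-Arg-AMC substrate at 100 μM; fluorescence (Ex 360/Em 480 nm) read 60 min later. Screened at 1 and 10 μM; IC50 from variable-slope sigmoidal fit.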

| inhibition at 1 µM (at 1 uM) [%] | inhibition at 1 µM (1 uM compound) [%] | SMILES |
| --- | --- | --- |
| 0 to 25 | – | N=C(N)c1ccc2cc(C(=O)N3CC[C@H](F)C3)n(Cc3ccc(NC(=O)CCN)cc3)c2c1 [Compound I-375] |
| 0 to 25 | – | N=C(N)c1ccc2cc(C(=O)N3CCC(F)(F)C3)n(Cc3ccc(NC(=O)CCN)cc3)c2c1 [Compound I-376] |
| 0 to 25 | – | N=C(N)c1ccc2cc(C(=O)N3CCC(CF)CC3)n(Cc3ccc(NC(=O)CCN)cc3)c2c1 [Compound I-377] |
| 0 to 25 | – | N=C(N)c1ccc2cc(C(=O)N3CCc4ccccc4C3)n(Cc3ccc(NC(=O)CCN)cc3)c2c1 [Compound I-378] |
| 0 to 25 | – | NCCC1CCN(C(=O)c2cc3ccc(/C(N)=N\O)cc3n2Cc2ccc(-c3ccccc3)cc2)CC1 [Compound I-380] |
| 0 to 25 | – | NCCC(=O)Nc1cccc(Cn2c(C(=O)N3CCC(CCN)CC3)cc3ccc(/C(N)=N/O)cc32)c1 [Compound I-381] |
| 0 to 25 | – | NCCCC(=O)Nc1cccc(Cn2c(C(=O)N3CCC(CCN)CC3)cc3ccc(/C(N)=N/O)cc32)c1 [Compound I-382] |
| 0 to 25 | – | NCCC(=O)Nc1ccc(Cn2c(C(=O)N3CCC(CCN)CC3)cc3ccc(/C(N)=N/O)cc32)cc1 [Compound I-383] |
| 25 to 50 | – | NCCCC(=O)Nc1ccc(Cn2c(C(=O)N3CCC(CCN)CC3)cc3ccc(/C(N)=N/O)cc32)cc1 [Compound I-384] |
| 0 to 25 | – | CCNC(=O)c1ccc(Cn2c(C(=O)N3CCC(F)(F)C3)cc3ccc(C(=N)N)cc32)cc1 [Compound I-385, 4-((6-Carbamimidoyl-2-(3,3-difluoropyrrolidine-1-carbonyl)-1H-indol-1-yl)methyl)-N-ethylbenzamide] |
| 0 to 25 | – | CN(C)C(=O)c1ccc(Cn2c(C(=O)N3CCC(F)(F)C3)cc3ccc(C(=N)N)cc32)cc1 [Compound I-386] |
| 0 to 25 | – | N=C(N)c1ccc2cc(C(=O)N3CCC(F)(F)C3)n(Cc3ccc(C(=O)NC4CC4)cc3)c2c1 [Compound I-387] |
| 0 to 25 | – | CNC(=O)c1ccc(Cn2c(C(=O)N3CCC(F)CC3)cc3ccc(C(=N)N)cc32)cc1 [Compound I-388] |
| 0 to 25 | – | CN(C)C(=O)c1ccc(Cn2c(C(=O)N3CCC(F)CC3)cc3ccc(C(=N)N)cc32)cc1 [Compound I-389] |
| 0 to 25 | – | CCNC(=O)c1ccc(Cn2c(C(=O)N3CCC(F)CC3)cc3ccc(C(=N)N)cc32)cc1 [Compound I-390] |
| 0 to 25 | – | N=C(N)c1ccc2cc(C(=O)N3CCC(F)CC3)n(Cc3ccc(C(=O)NC4CC4)cc3)c2c1 [Compound I-391] |
| 0 to 25 | – | N=C(N)c1ccc2cc(C(=O)N3CCC(F)(F)C3)n(Cc3ccc(C(=O)NCCN)cc3)c2c1 [Compound I-392] |
| 0 to 25 | – | N=C(N)c1ccc2cc(C(=O)N3CCC(F)CC3)n(Cc3ccc(C(=O)NCCN)cc3)c2c1 [Compound I-393] |
| 0 to 25 | – | NC(=O)c1ccc2cc(C(=O)N3CCc4ccccc4C3)n(Cc3ccc(-c4ccccc4)cc3)c2c1 [Compound I-394, 1-([1,1′-Biphenyl]-4-ylmethyl)-2-(1,2,3,4-tetrahydroisoquinoline-2-carbonyl)-1H-indole-6-carboxamide] |
| – | 25 to 50 | N=C(N)c1ccc2cc(C(=O)N[C@H]3CC[C@H](N)CC3)n(S(=O)(=O)c3ccc4ccccc4c3)c2c1 [Compound I-397] |
| – | 0 to 25 | N/C(=N\O)c1ccc2cc(C(=O)NCC3CCNCC3)n(Cc3ccc4ccccc4c3)c2c1 [Compound I-398, 6-(N′-hydroxycarbamimidoyl)-1-(naphthalen-2-ylmethyl)-N-(piperidin-4-ylmethyl)-1H-indole-2-carboxamide] |
| – | 0 to 25 | N/C(=N\O)c1ccc2cc(C(=O)N[C@H]3CC[C@H](N)CC3)n(Cc3ccc4ccccc4c3)c2c1 [Compound I-399] |
| – | 25 to 50 | N/C(=N/O)c1ccc2cc(C(=O)N[C@H]3CC[C@H](N)CC3)n(Cc3cccc4ccccc34)c2c1 [Compound I-400] |
| – | 0 to 25 | COc1ccc2cc(Cn3c(C(=O)N[C@H]4CC[C@H](N)CC4)cc4ccc(/C(N)=N\O)cc43)ccc2c1 [Compound I-401] |
| – | 25 to 50 | N=C(N)c1ccc2cc(C(=O)NCC3CCNCC3)n(Cc3ccc4ccccc4c3)c2c1 [Compound I-406, 6-carbamimidoyl-1-(naphthalen-2-ylmethyl)-N-(piperidin-4-ylmethyl)-1H-indole-2-carboxamide] |
| – | 50 to 75 | COc1ccc2cc(Cn3c(C(=O)N[C@H]4CC[C@H](N)CC4)cc4ccc(C(=N)N)cc43)ccc2c1 [Compound I-408] |
| 0 to 25 | – | N=C(N)c1ccc2cc(C(=O)NC3CCC(F)(F)CC3)n(Cc3ccc(NC(=O)CCN)cc3)c2c1 [I- s263] |
